According to paper PMC4584356, “A Pimarane Diterpene and Cytotoxic Angucyclines from a Marine-Derived Micromonospora sp. in Vietnam’s East Sea” (Marine Drugs, 2015):
Values after ≈ are worked out from the molar mass of the structure shown.

Experiments:
[1] = test system: M. tuberculosis H37Rv ATCC 27294; assay: Microplate alamar blue assay (MABA), replicating M. tuberculosis; type: cell-based; conditions: for MIC: Mycobacterium tuberculosis, MIC = lowest concentration giving ≥90% growth inhibition, averaged from triplicates
[2] = test system: M. tuberculosis H37Rv ATCC 27294; assay: Low oxygen recovery assay (LORA), non-replicating M. tuberculosis; type: cell-based; conditions: Mycobacterium tuberculosis
Kuramochi = assay: cells; type: cell-based; conditions: Homo sapiens, 72 h, read-out: Cytotoxicity LC50 Kuramochi
Description: (§1) Following their identification, compounds 1–5 were assessed for cytotoxicity in two high-grade ovarian cancer cell lines, OVCAR4 and Kuramochi. Potential for selective cytotoxicity was evaluated using two non-cancerous mouse cell lines representing the putative progenitor cells of ovarian cancer, murine ovarian surface epithelial (MOSE) and murine oviductal epithelial (MOE). […] Generally speaking, this para-quinone scaffold is not an attractive lead, as higher toxicity in non-tumorigenic cell lines confers serious overall toxicity.
(§2) Human ovarian OVCAR4 and Kuramochi cancer cells were maintained in RPMI 1640 (11875-093, Life-technologies; Carlsbad, CA, USA) supplemented with 10% FBS (16000-044, Life-technologies; Carlsbad, CA, USA) and 1% penicillin/streptomycin. Non-cancerous murine ovarian surface epithelium (MOSE) and murine oviductal epithelium (MOE) cells were maintained as previously reported. Concentration-response experiments were performed as previously described for 72 h.

OVCAR4 = assay: cells; type: cell-based; conditions: Homo sapiens, OVCAR-4, 72 h, read-out: Cytotoxicity LC50 OVCAR4
Description: as §1, §2

[3] = test system: two fungal species, a human parasite, and several Gram-negative and Gram-positive bacteria; set-up: method as in PMID 7451359, PMID 7451360; conditions: cited from earlier work
[4] = test system: L1210 lymphocytic leukemia cells; set-up: method as in PMID 11395569; conditions: L1210 lymphocytic leukemia cells in vitro; read-out: IC50 range, inhibition of tumor cell proliferation and viability; cited from earlier work
[5] = test system: OVCAR4, Kuramochi, MOSE and MOE cell lines; assay: Cytotoxicity panel of cancerous and non-cancerous cell lines (overall statements, selectivity); type: cell-based; conditions: for Cytotoxicity in the cell line panel (in words): OVCAR4, Kuramochi, MOSE, MOE
Description: as §1, §2

Eimeria tenella = test system: Eimeria tenella; set-up: method as in PMID 7451359, PMID 7451360; conditions: apicomplexan poultry parasite Eimeria tenella; cited from earlier work
[6] = test system: wide range of cancer cell lines; conditions: previous reports; cited from earlier work
[7] = test system: panel of Gram-negative and Gram-positive bacteria; set-up: method as in PMID 2925509; conditions: cited from earlier work

Row | SMILES | MIC [1] | MIC [2] | CC50 (Kuramochi) | CC50 (OVCAR4) | Biological activity against antimicrobial panel (in words) [3] | Activity in MABA (in words) [1] | IC50 [4] | Greater activity toward Kuramochi ovarian cancer cells ([5]; Kuramochi versus the other cell lines of the panel) | Cytotoxicity in the cell line panel (in words) [5] | Anticoccidial activity (in words) (Eimeria tenella) | Inhibition of cancer cell lines (in words) [6] | Antibacterial activity (in words) [7]
1 | Cc1cc(O)c2c(c1)COC1=C2C(=O)c2cccc(O)c2C1=O [Compound 2, lagumycin B] | 2.01 µg/mL (≈ 6.52 µM) | 25.7 µg/mL (≈ 83.4 µM) | > 32.5 µM | > 32.5 µM |  |  |  |  |  |  |  | 
2 | COc1cc(C)cc2c(=O)oc3c(c12)C(=O)c1cccc(O)c1C3=O [Compound 5, WS-5995 A] | 22.7 µg/mL (≈ 67.5 µM) | > 50 µg/mL | 18.6 µM | 127 µM | no significant biological activity | lacked significant activity | 0.24 to 0.65 µM | approximately seven-fold | enhanced cytotoxicity against the Kuramochi cell line when compared to non-tumorigenic cell lines | anticoccidial activity |  | 
3 | C=C[C@@]1(C)CCC2=C(CC[C@H]3C(C)(C)[C@@H](O)C(=O)C[C@]23C)C1 [Compound 1, isopimara-2-one-3-ol-8,15-diene] | 19.4 µg/mL (≈ 64.1 µM) | > 50 µg/mL | > 33.1 µM | > 33.1 µM |  | lacked significant activity |  |  | not significantly active |  |  | 
4 | Cc1cc(O)c2c3c(ncc2c1)C(=O)c1c(O)cccc1C3=O [Compound 4, phenanthroviridone] | 0.72 µg/mL (≈ 2.36 µM) | 17.8 µg/mL (≈ 58.3 µM) | 1.11 µM | 4.82 µM |  |  |  |  | non-specifically cytotoxic |  |  | 
5 | Cc1cc(O)c2c3c(c(O)cc2c1)C(=O)c1c(O)cccc1C3=O [Compound 3, dehydrorabelomycin] | 1.01 µg/mL (≈ 3.15 µM) | 19.6 µg/mL (≈ 61.2 µM) | 6.72 µM | 11 µM |  |  |  |  | non-specifically cytotoxic |  | inhibited a wide range of cancer cell lines at micromolar potency | no detectable activity
6 | COc1cccc2c1C(=O)c1c(O)c3c(c(O)c1C2=O)C[C@@](O)(C(=O)CO)C[C@@H]3O[C@H]1C[C@H](N)[C@H](O)[C@H](C)O1 [Doxorubicin, reference compound] |  |  | < 0.078 µM | < 0.078 µM |  |  |  |  |  |  |  | 
